# Patent publication US20250255781A1, “PROCESSES FOR PREPARATION OF 3-D PRINTED PHARMACEUTICAL PRODUCTS” (BRISTOL-MYERS SQUIBB COMPANY, priority 2022, published 2025)
# Experiment: Thermal gravimetric analysis (TGA) of thermal stability
# Type: physicochemical
# Details: heated 25-500° C. at 10° C./min; degradation beyond
# Method: 2-2.5 mg of polymer and drug samples were carefully weighed and positioned in to a standard aluminium pan. The samples were heated from 25° C. to 500° C. at 10° C./min. The extracted raw data were analysed via TA Universal Analysis software (Universal Analysis 2000, version 4.5A, TA instruments, USA).
structure (smiles),measurement,value
"CC(C)Cc1ccc(C(C)C(=O)O)cc1 (stereo not shown) [IBU, Ibuprofen]",thermally stable when heated up to (TGA),up to 140 °C
